From patent US7070983B2, “Mutant Pseudomonas putida strains and methods of use thereof” (priority 2003, dated 2006)

Key:
Type in all cases: cell-based, Pseudomonas putida
parental strain KH146-2 = test: Antibiotic growth suppression on LB agar
Excerpt: (§1) Spontaneous streptomycin-resistant (Str), gentamicin-resistant (Gen) or rifampicin-resistant (Rif) mutants were obtained from colonies that grew within 3 days after wild-type cells were spread on LB agar containing various concentrations of antibiotic.
We first isolated a number of spontaneous streptomycin-resistant (Str), gentamicin-resistant (Gen) and rifampicin-resistant (Rif) mutants of P. putida KH146-2. These mutants appeared at a frequency of 10^−5–10^−6 when KH146-2 cells were spread on LB agar containing various amounts of antibiotics. […] Forty mutants resistant to each antibiotic were randomly selected and examined for tolerance to 4-hydroxybenzoic acid (4HBA). 4HBA-tolerant strains, which could grow in the presence of 1% 4HBA, were detected among these antibiotic resistant mutants at a high frequency of 3 to 15% (Table 1). The highest frequency (15%) was detected in the mutants selected with 1000 μg ml^−1 of streptomycin. These 4HBA-tolerant isolates all grew as well as the parent strain on LB agar.

[1] = test system: P. putida strain no. 23 (rif-4); test: Resistance level to antibiotic on LB agar; settings: 1 days on LB agar
Excerpt: as §1

[2] = test system: P. putida strain no. 17 (rif-3); test: Resistance level to antibiotic on LB agar; settings: 1 days on LB agar
Excerpt: as §1

[3] = test system: P. putida strain no. 21 (rif-3); test: Resistance level to antibiotic on LB agar; settings: 1 days on LB agar
Excerpt: as §1

[4] = test system: P. putida strain no. 20 (rif-5); test: Resistance level to antibiotic on LB agar; settings: 1 days on LB agar
Excerpt: as §1

[5] = test system: P. putida strain no. 14 (rif-1); test: Resistance level to antibiotic on LB agar; settings: 1 days on LB agar
Excerpt: as §1

[6] = test system: P. putida strain no. 19 (rif-5); test: Resistance level to antibiotic on LB agar; settings: 1 days on LB agar
Excerpt: as §1

[7] = test system: P. putida strain no. 15 (rif-2); test: Resistance level to antibiotic on LB agar; settings: 1 days on LB agar
Excerpt: as §1

[8] = test system: P. putida strain no. 18 (rif-4); test: Resistance level to antibiotic on LB agar; settings: 1 days on LB agar
Excerpt: as §1

[9] = test system: P. putida strain no. 22 (rif-3); test: Resistance level to antibiotic on LB agar; settings: 1 days on LB agar
Excerpt: as §1

[10] = test system: P. putida strain no. 24 (rif-4); test: Resistance level to antibiotic on LB agar; settings: 1 days on LB agar
Excerpt: as §1

[11] = test system: P. putida strain no. 13 (gen); test: Resistance level to antibiotic on LB agar; settings: 1 days on LB agar
Excerpt: as §1

[12] = test system: P. putida strain no. 11 (gen); test: Resistance level to antibiotic on LB agar; settings: 1 days on LB agar
Excerpt: as §1

[13] = test system: P. putida strain no. 12 (gen); test: Resistance level to antibiotic on LB agar; settings: 1 days on LB agar
Excerpt: as §1

Compound	Concentration completely suppressing growth (parental strain KH146-2) [µg/mL]	Resistance level to antibiotic [1]	Resistance level to antibiotic [2]	Resistance level to antibiotic [3]	Resistance level to antibiotic [4]	Resistance level to antibiotic [5]	Resistance level to antibiotic [6]	Resistance level to antibiotic [7]	Resistance level to antibiotic [8]	Resistance level to antibiotic [9]	Resistance level to antibiotic [10]	Resistance level to antibiotic [11]	Resistance level to antibiotic [12]	Resistance level to antibiotic [13]
CO[C@H]1/C=C/O[C@@]2(C)Oc3c(C)c(O)c4c(O)c(c(/C=N/N5CCN(C)CC5)c(O)c4c3C2=O)NC(=O)/C(C)=C\C=C\[C@H](C)[C@H](O)[C@@H](C)[C@@H](O)[C@@H](C)[C@H](OC(C)=O)[C@@H]1C [rifampicin]	10	500 (RIF) μg ml^−1	500 (RIF) μg ml^−1	500 (RIF) μg ml^−1	500 (RIF) μg ml^−1	>500 (RIF) μg ml^−1	500 (RIF) μg ml^−1	>500 (RIF) μg ml^−1	500 (RIF) μg ml^−1	500 (RIF) μg ml^−1	500 (RIF) μg ml^−1			
gentamicin	12											50 (GEN) μg ml^−1	50 (GEN) μg ml^−1	50 (GEN) μg ml^−1
